Data: PubChem BioAssay (NCI)
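All cell lines were grown in 96-well plates and treated with compound for 48 hours. TGI marks complete inhibition of growth.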

Key:
Experiment in all cases: NCI anticancer screen, dose series, 48 h
UO-31 renal = system: UO-31 renal
OVCAR-4 ovarian = system: OVCAR-4 ovarian
RPMI-8226 leukemia = system: RPMI-8226 leukemia
COLO 205 colon = system: COLO 205 colon
IGROV1 ovarian = system: IGROV1 ovarian
HCT-116 colon = system: HCT-116 colon
NCI-H23 lung = system: NCI-H23 lung
SNB-19 CNS = system: SNB-19 CNS
NCI-H522 lung = system: NCI-H522 lung
SK-MEL-28 melanoma = system: SK-MEL-28 melanoma
K-562 leukemia = system: K-562 leukemia
CCRF-CEM leukemia = system: CCRF-CEM leukemia
SR leukemia = system: SR leukemia
T-47D breast = system: T-47D breast
RXF 393 renal = system: RXF 393 renal
NCI/ADR-RES ovarian = system: NCI/ADR-RES ovarian
HL-60(TB) leukemia = system: HL-60(TB) leukemia
BT-549 breast = system: BT-549 breast
EKVX NSCLC = system: EKVX NSCLC
SF-268 CNS = system: SF-268 CNS
OVCAR-5 ovarian = system: OVCAR-5 ovarian
NCI-H226 lung = system: NCI-H226 lung
LOX IMVI melanoma = system: LOX IMVI melanoma
SK-MEL-2 melanoma = system: SK-MEL-2 melanoma
SF-539 CNS = system: SF-539 CNS
KM12 colon = system: KM12 colon
MALME-3M melanoma = system: MALME-3M melanoma
SW-620 colon = system: SW-620 colon
HOP-62 NSCLC = system: HOP-62 NSCLC
OVCAR-3 ovarian = system: OVCAR-3 ovarian
HCT-15 colon = system: HCT-15 colon
CAKI-1 renal = system: CAKI-1 renal
SNB-75 CNS = system: SNB-75 CNS
OVCAR-8 ovarian = system: OVCAR-8 ovarian
A549 NSCLC = system: A549 NSCLC
SK-MEL-5 melanoma = system: SK-MEL-5 melanoma
HS 578T breast = system: HS 578T breast
HT29 colon = system: HT29 colon
SN12C renal = system: SN12C renal
MCF7 breast = system: MCF7 breast
M14 melanoma = system: M14 melanoma
786-0 renal = system: 786-0 renal
UACC-62 melanoma = system: UACC-62 melanoma
MDA-MB-435 = system: MDA-MB-435
PC-3 prostate = system: PC-3 prostate
ACHN renal = system: ACHN renal
DU-145 prostate = system: DU-145 prostate
HOP-92 NSCLC = system: HOP-92 NSCLC
MOLT-4 leukemia = system: MOLT-4 leukemia
SF-295 CNS = system: SF-295 CNS

`COc1cc(S(=O)(=O)Nc2ccc(-c3csc(/N=C\c4cccc(Oc5ccccc5)c4)n3)cc2)ccc1Cl` gave a TGI (UO-31 renal) greater than 100 µM, a TGI (OVCAR-4 ovarian) greater than 100 µM and a TGI (RPMI-8226 leukemia) of 75.6 µM. For the same compound, the TGI (COLO 205 colon) was greater than 100 µM, the TGI (IGROV1 ovarian) was 64.2 µM and the TGI (HCT-116 colon) was 92.6 µM. The TGI (NCI-H23 lung) was greater than 100 µM, the TGI (SNB-19 CNS) was greater than 100 µM and the TGI (NCI-H522 lung) was 66.6 µM. For the same compound, the TGI (SK-MEL-28 melanoma) was greater than 100 µM, the TGI (K-562 leukemia) was 77 µM and the TGI (CCRF-CEM leukemia) was greater than 100 µM. It also gave a TGI (SR leukemia) of 81.9 µM, a TGI (T-47D breast) of 34.4 µM and a TGI (RXF 393 renal) of 49.4 µM. It also gave a TGI (NCI/ADR-RES ovarian) greater than 100 µM, a TGI (HL-60(TB) leukemia) of 57.6 µM and a TGI (BT-549 breast) of 93.1 µM. It also gave a TGI (EKVX NSCLC) of 81.4 µM, a TGI (SF-268 CNS) greater than 100 µM and a TGI (OVCAR-5 ovarian) greater than 100 µM. For the same compound, the TGI (NCI-H226 lung) was greater than 100 µM, the TGI (LOX IMVI melanoma) was 39 µM and the TGI (SK-MEL-2 melanoma) was greater than 100 µM. It also gave a TGI (SF-539 CNS) greater than 100 µM, a TGI (KM12 colon) greater than 100 µM and a TGI (MALME-3M melanoma) greater than 100 µM. The TGI (SW-620 colon) was greater than 100 µM, the TGI (HOP-62 NSCLC) was greater than 100 µM and the TGI (OVCAR-3 ovarian) was greater than 100 µM. For the same compound, the TGI (HCT-15 colon) was greater than 100 µM, the TGI (CAKI-1 renal) was greater than 100 µM and the TGI (SNB-75 CNS) was 80.1 µM. It also gave a TGI (OVCAR-8 ovarian) of 61.9 µM, a TGI (A549 NSCLC) greater than 100 µM and a TGI (SK-MEL-5 melanoma) greater than 100 µM. The TGI (HS 578T breast) was greater than 100 µM, the TGI (HT29 colon) was greater than 100 µM and the TGI (SN12C renal) was 96.7 µM. It also gave a TGI (MCF7 breast) of 21.1 µM, a TGI (M14 melanoma) greater than 100 µM and a TGI (786-0 renal) greater than 100 µM. It also gave a TGI (UACC-62 melanoma) of 25.1 µM, a TGI (MDA-MB-435) greater than 100 µM and a TGI (PC-3 prostate) greater than 100 µM. The TGI (ACHN renal) was 71.8 µM, the TGI (DU-145 prostate) was 61.7 µM and the TGI (HOP-92 NSCLC) was 58.6 µM. It also gave a TGI (MOLT-4 leukemia) greater than 100 µM and a TGI (SF-295 CNS) greater than 100 µM.
